Laboratory results from ChEMBL document CHEMBL1201862, “PubChem BioAssay data set” (2004).
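96-well plates; 48 h exposure; 5 concentrations. Endpoints by linear interpolation between flanking doses. Not reached: highest tested concentration assigned. The concentration for 50% growth inhibition is given as GI50.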 Active and inactive are the calls of the source. No stated cut-off is given here; in the data, active = GI50 up to about 1.1 µM and inactive = higher.

Tests used:
Assay in all cases: NCI-60 cell line screen, 48 h
[1] = tested on: A498
[2] = tested on: BT-549
[3] = tested on: CAKI-1
[4] = tested on: DU-145
[5] = tested on: HL-60
[6] = tested on: Hs-578T
[7] = tested on: IGROV-1
[8] = tested on: K562
[9] = tested on: MDA-MB-231
[10] = tested on: Malme-3M
[11] = tested on: OVCAR-5
[12] = tested on: PC-3
[13] = tested on: SF-268
[14] = tested on: SK-MEL-5
[15] = tested on: SR
[16] = tested on: UACC-257

Measured: GI50

O=C1OC(C(O)C(O)C(O)CO)C(O)C1O (configuration not stated)
inactive: [1] > 100 µM | [2] > 100 µM | [3] > 100 µM | [4] > 100 µM | [5] > 100 µM | [6] > 100 µM | [7] > 100 µM | [8] > 100 µM | [9] > 100 µM | [10] > 100 µM | [11] > 100 µM | [12] > 100 µM | [13] > 100 µM | [14] > 100 µM | [15] > 100 µM | [16] > 100 µM

CC1=Nn2c(nc3sc4c(c3c2=O)CCCC4)SC1
inactive: [1] > 50.1 µM | [2] 31.5 µM | [3] > 100 µM | [4] > 86.1 µM | [5] 34.8 µM | [6] > 90.4 µM | [7] > 76.4 µM | [8] 39.9 µM | [9] > 50.4 µM | [10] > 94.2 µM | [11] > 100 µM | [12] 63 µM | [13] > 58.1 µM | [14] 62.4 µM | [15] 57 µM | [16] > 100 µM

CCOC1SC(SC)=NN1C(=O)C(OC(C)=O)C(OC(C)=O)C(OC(C)=O)C(OC(C)=O)C(=O)N1N=C(SC)SC1OCC (configuration not stated)
inactive: [1] > 100 µM | [2] > 100 µM | [3] > 100 µM | [4] > 100 µM | [5] > 100 µM | [6] 35.2 µM | [7] > 100 µM | [8] > 100 µM | [9] > 100 µM | [10] > 100 µM | [11] > 100 µM | [12] > 100 µM | [13] > 100 µM | [14] > 100 µM | [15] > 100 µM | [16] > 100 µM

COc1ccc2c(=O)c3cc([N+](=O)[O-])ccc3n(C)c2c1
inactive: [1] > 100 µM | [2] > 100 µM | [3] > 100 µM | [4] > 100 µM | [5] > 100 µM | [6] > 100 µM | [7] > 100 µM | [8] > 100 µM | [9] > 100 µM | [10] > 100 µM | [11] > 100 µM | [12] > 100 µM | [13] > 100 µM | [14] > 100 µM | [15] > 100 µM | [16] > 100 µM

C=CCC1(O)C(=O)OC2C(O)COC21O (configuration not stated)
inactive: [1] > 100 µM | [2] > 100 µM | [3] > 100 µM | [4] > 100 µM | [5] > 100 µM | [6] > 100 µM | [7] > 100 µM | [8] > 100 µM | [9] > 100 µM | [10] > 100 µM | [11] > 100 µM | [12] > 100 µM | [13] > 100 µM | [14] > 100 µM | [15] > 100 µM | [16] > 100 µM

COC(=O)C1(Cc2ccccc2)Cc2cc3c(cc2C1O)CCC3 (configuration not stated)
inactive: [1] 19.7 µM | [2] 15.5 µM | [3] 11.6 µM | [4] 15.2 µM | [5] 24.5 µM | [6] 13.8 µM | [7] 15.8 µM | [8] 19.7 µM | [9] 18.3 µM | [10] 14 µM | [11] 13.6 µM | [12] 19 µM | [13] 30.3 µM | [14] 15.9 µM | [15] 26.7 µM | [16] 18.2 µM

O=C1c2ccccc2C(=O)c2c1ccc1nc3c(nc21)-c1c2ccccc2cc2cccc-3c12
inactive: [1] > 50.9 µM | [2] 80.2 µM | [3] 23.4 µM | [4] 29.2 µM | [5] 10 µM | [6] 13.7 µM | [7] 9.16 µM | [8] > 29.6 µM | [9] 74.1 µM | [10] 51.9 µM | [11] > 100 µM | [12] 41.9 µM | [13] 29.4 µM | [14] 46.7 µM | [15] 5.27 µM | [16] > 100 µM

Nc1ncnc2c1ncn2[C@@H]1O[C@H](COP(=O)(O)OP(=O)(O)OC[C@H]2O[C@@H](OCCCO)[C@H](O)[C@@H]2O)[C@@H](O)[C@H]1O
inactive: [1] > 100 µM | [2] > 100 µM | [3] 85.9 µM | [4] > 100 µM | [5] > 100 µM | [6] > 100 µM | [7] > 100 µM | [8] > 100 µM | [9] > 100 µM | [10] > 100 µM | [11] > 100 µM | [12] > 100 µM | [13] > 100 µM | [14] > 100 µM | [15] 44.8 µM | [16] > 100 µM

CC1(C)CCCCCCCCCC(C)(CCCO)C1=O (configuration not stated)
inactive: [1] 18.5 µM | [2] 17.7 µM | [3] 17.7 µM | [4] 17.2 µM | [5] 19.7 µM | [6] 20.6 µM | [7] 17.4 µM | [8] 24.6 µM | [9] 15.2 µM | [10] 16.8 µM | [11] 15.5 µM | [12] 14 µM | [13] 18.2 µM | [14] 17.5 µM | [15] 35.2 µM | [16] 17.7 µM

CC(/C=N/N(C)C1=NCCCN1)=N/N(C)C1=NCCCN1
inactive: [1] > 100 µM | [2] > 100 µM | [3] > 100 µM | [4] > 100 µM | [5] > 100 µM | [6] > 100 µM | [7] > 100 µM | [8] > 100 µM | [9] > 100 µM | [10] > 100 µM | [11] > 100 µM | [12] > 100 µM | [13] > 100 µM | [14] > 100 µM | [15] > 100 µM | [16] > 100 µM

O=C1C(C(c2ccc([N+](=O)[O-])cc2)N2CCOCC2)=C(O)C(c2ccccc2)N1c1ccccc1 (configuration not stated)
inactive: [1] > 10 µM | [2] > 10 µM | [3] > 10 µM | [4] > 10 µM | [5] > 10 µM | [6] > 10 µM | [7] > 10 µM | [8] > 10 µM | [9] > 10 µM | [10] > 10 µM | [11] > 10 µM | [12] > 10 µM | [13] > 10 µM | [14] > 10 µM | [15] > 10 µM | [16] > 10 µM

CC(=O)OCC12C(OC(C)=O)C(=O)C3C(OC(C)=O)C14OC3(C)COC(=O)c1cccnc1C(C)C(C)C(=O)OC(C(OC(C)=O)C2OC(C)=O)C4(C)O (configuration not stated)
inactive: [1] > 100 µM | [2] > 100 µM | [3] > 100 µM | [4] > 100 µM | [5] > 100 µM | [6] > 100 µM | [7] > 100 µM | [8] > 100 µM | [9] > 100 µM | [10] > 100 µM | [11] > 100 µM | [12] > 100 µM | [13] > 100 µM | [14] > 100 µM | [15] 42.6 µM | [16] > 100 µM
